Experiments:
[1] = target: human VEGF receptor (VEGFR-2) (Homo sapiens (Human), UniProt P35968); assay: VEGFR2 Kinase Assay (Enzymic VEGFR2); format: biochemical; details: His-VEGFR-2 cytoplasmic domain, 3.6 µM ATP
Description: VEGFR2 Kinase Assay The cytoplasmic domain of the human VEGF receptor (VEGFR-2) was expressed as a Histidine-tagged fusion protein following infection of insect cells using an His engineered baculovirus. […] Kinase assays were performed in 96 well microtiter plates that were coated overnight with 30 µg of poly-Glu-[…]:1) in 10 mM Phosphate Buffered Saline (PBS), pH 7.2-7.4. The plates were incubated with 1% BSA and then washed four times with PBS prior to starting the reaction. […] Reactions were initiated by the addition 0.5 ng of purified protein. Following a ten minute incubation at 25° C., the reactions were washed four times with PBS containing 0.05% Tween-20. 100 µl of a monoclonal anti-phosphotyrosine antibody-peroxidase conjugate was diluted 1:10000 in PBS-Tween-20 and added to the wells for 30 minutes. Following four washes with PBS-Tween-20, 100 µl of 0-phenylenediamine Dihydrochloride in Phosphate-citrate buffer, containing urea hydrogen peroxide, was added to the wells for 7 minutes as a colorimetric substrate for the peroxidase. […] IC50 values for compound inhibition were calculated directly from graphs of optical density (arbitrary units) versus compound concentration following subtraction of blank values.

[2] = target: PDGFRβ (Homo sapiens (Human), UniProt P09619); assay: Enzymic PDGFRβ; format: biochemical
Chain of PDGFRβ (P09619 33-1106, species assumed): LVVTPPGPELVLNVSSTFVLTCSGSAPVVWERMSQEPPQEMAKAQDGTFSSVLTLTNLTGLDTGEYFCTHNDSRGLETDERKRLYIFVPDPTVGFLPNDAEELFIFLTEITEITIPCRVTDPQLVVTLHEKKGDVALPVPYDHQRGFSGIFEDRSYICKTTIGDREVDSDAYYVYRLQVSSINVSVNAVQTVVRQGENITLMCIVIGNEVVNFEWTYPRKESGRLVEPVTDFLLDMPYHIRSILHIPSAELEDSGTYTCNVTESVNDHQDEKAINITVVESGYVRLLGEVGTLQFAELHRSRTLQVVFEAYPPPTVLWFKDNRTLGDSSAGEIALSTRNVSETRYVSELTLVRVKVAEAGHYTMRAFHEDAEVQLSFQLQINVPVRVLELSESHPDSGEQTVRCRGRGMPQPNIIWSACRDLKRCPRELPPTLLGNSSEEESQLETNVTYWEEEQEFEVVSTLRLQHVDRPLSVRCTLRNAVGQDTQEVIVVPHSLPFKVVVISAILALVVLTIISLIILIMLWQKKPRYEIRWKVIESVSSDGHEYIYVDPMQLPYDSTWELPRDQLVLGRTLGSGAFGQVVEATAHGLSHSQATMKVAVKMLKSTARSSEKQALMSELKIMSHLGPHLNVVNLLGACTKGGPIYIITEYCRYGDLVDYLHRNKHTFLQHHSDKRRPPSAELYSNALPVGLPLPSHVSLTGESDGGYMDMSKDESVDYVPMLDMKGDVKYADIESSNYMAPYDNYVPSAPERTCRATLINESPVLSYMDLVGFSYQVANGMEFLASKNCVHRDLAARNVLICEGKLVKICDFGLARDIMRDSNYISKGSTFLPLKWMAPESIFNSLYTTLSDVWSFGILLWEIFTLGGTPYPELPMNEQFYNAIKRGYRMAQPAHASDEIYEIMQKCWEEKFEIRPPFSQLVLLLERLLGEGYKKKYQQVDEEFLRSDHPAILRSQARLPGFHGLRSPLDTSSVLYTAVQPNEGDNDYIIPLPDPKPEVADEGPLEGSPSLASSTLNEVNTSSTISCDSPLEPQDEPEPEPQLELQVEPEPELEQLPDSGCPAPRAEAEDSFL

[3] = target: VEGFR2 (Homo sapiens (Human), UniProt P35968); assay: VEGF Stimulated Ca++ Signal In Vitro (Cellular VEGFR2, FLIPR); format: cell-based; details: HUVEC, VEGF stimulation (5 ng/mL), intracellular calcium
Chain of VEGFR2 (P35968 20-1356): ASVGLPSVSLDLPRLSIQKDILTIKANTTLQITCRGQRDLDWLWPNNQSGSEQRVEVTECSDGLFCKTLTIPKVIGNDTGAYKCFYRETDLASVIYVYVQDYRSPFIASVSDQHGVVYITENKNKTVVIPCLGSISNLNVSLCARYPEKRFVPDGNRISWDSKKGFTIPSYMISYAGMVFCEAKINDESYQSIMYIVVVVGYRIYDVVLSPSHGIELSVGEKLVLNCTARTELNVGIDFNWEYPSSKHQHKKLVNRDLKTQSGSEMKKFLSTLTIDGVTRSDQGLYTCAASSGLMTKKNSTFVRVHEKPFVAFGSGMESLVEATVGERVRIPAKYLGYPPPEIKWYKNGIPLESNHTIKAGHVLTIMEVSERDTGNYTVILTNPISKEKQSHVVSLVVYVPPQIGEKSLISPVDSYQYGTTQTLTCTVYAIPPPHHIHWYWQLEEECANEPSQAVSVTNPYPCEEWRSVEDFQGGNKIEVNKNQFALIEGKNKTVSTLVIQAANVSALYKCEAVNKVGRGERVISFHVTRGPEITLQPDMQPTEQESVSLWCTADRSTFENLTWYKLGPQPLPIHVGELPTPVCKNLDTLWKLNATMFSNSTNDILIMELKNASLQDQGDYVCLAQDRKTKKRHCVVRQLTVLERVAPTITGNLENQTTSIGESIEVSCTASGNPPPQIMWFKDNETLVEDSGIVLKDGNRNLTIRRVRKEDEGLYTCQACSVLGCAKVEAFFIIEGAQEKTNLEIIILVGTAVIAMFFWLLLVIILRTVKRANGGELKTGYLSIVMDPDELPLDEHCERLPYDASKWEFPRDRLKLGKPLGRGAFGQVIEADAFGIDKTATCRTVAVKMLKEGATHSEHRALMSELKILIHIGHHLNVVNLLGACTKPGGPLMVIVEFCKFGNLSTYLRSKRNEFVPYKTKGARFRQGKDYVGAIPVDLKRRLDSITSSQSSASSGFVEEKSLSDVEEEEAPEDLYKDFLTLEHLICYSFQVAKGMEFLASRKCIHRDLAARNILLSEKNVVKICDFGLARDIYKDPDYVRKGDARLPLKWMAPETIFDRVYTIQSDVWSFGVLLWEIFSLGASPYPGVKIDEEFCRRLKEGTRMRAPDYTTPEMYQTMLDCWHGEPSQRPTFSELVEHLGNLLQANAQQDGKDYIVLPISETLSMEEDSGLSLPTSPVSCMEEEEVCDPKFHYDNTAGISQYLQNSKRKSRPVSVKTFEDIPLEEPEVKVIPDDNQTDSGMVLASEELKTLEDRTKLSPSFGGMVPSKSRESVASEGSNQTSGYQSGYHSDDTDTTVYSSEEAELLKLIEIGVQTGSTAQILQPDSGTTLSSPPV

Chain of human VEGF receptor (VEGFR-2) (P35968 786-1356): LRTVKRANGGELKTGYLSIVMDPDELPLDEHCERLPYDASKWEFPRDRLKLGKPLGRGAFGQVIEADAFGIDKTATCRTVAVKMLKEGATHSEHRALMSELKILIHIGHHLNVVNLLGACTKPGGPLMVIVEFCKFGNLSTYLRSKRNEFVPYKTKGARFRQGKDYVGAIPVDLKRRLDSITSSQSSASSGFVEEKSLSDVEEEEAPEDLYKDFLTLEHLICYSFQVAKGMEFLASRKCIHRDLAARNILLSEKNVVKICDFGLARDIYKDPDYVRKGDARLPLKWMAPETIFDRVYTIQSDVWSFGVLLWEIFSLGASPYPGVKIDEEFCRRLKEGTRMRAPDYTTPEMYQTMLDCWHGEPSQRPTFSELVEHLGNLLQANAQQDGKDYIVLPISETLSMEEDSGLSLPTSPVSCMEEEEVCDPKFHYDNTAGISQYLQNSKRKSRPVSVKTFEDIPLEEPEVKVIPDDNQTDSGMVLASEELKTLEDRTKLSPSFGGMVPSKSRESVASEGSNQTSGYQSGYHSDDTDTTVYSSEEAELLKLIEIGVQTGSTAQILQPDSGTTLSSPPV

IC50 [1] [nM] | IC50 [2] [nM] | IC50 [3] [nM] | SMILES
17 | 212 | – | Cc1ccoc1C(=O)Nc1cccc(Oc2ccnc3cc(C(=O)OCCO)sc23)c1 [Example 80, 2-hydroxyethyl 7-{3-[(3-methyl-2-furoyl)amino]phenoxy}thieno[3,2-b]pyridine-2-carboxylate]
7 | 206 | 64 | CCN(CC)C(=O)c1cc2nccc(Oc3cccc(C(=O)Nc4cc(C)ccc4F)c3)c2s1 [Example 86, N,N-diethyl-7-(3-{[(2-fluoro-5-methylphenyl)amino]carbonyl}phenoxy)thieno[3,2-b]pyridine-2-carboxamide]
18 | – | 2 | COC(=O)c1cc2nccc(Oc3ccc(NC(=O)Nc4cc(C)ccc4F)cc3)c2s1 [Compound F1, Methyl 7-[4-({[(2-fluoro-5-methylphenyl)amino]carbonyl}amino)phenoxy]thieno[3,2-b]pyridine-2-carboxylate]
27 | 424 | – | CCN(CC)C(=O)c1cc2nccc(Oc3cccc(NC(=O)c4occc4C)c3)c2s1 [Example 74, N,N-diethyl-7-{3-[(3-methyl-2-furoyl)amino]phenoxy}thieno[3,2-b]pyridine-2-carboxamide]
11 | 146 | – | Cc1ccoc1C(=O)Nc1cccc(Oc2ccnc3cc(C(=O)NCCCO)sc23)c1 [Example 76, N-(3-hydroxypropyl)-7-{3-[(3-methyl-2-furoyl)amino]phenoxy}thieno[3,2-b]pyridine-2-carboxamide]
3 | – | 6 | Cc1ccc(F)c(NC(=O)Nc2ccc(Oc3ccnc4cc(C(=O)NCCCN5CCCC5)sc34)cc2F)c1 [Example 43, 7-[3-fluoro-4-({[(2-fluoro-5-methylphenyl)amino]carbonyl}amino)phenoxy]-N-(3-pyrrolidin-1-ylpropyl)thieno[3,2-b]pyridine-2-carboxamide]
19 | 273 | – | COCCOC(=O)c1cc2nccc(Oc3cccc(NC(=O)c4occc4C)c3)c2s1 [Example 81, 2-methoxyethyl 7-{3-[(3-methyl-2-furoyl)amino]phenoxy}thieno[3,2-b]pyridine-2-carboxylate]
9 | 146 | – | Cc1ccoc1C(=O)Nc1cccc(Oc2ccnc3cc(C(=O)OCCCO)sc23)c1 [Example 79, 3-hydroxypropyl 7-{3-[(3-methyl-2-furoyl)amino]phenoxy}thieno[3,2-b]pyridine-2-carboxylate]
11 | 238 | – | COC(=O)CNCCCNC(=O)c1cc2nccc(Oc3cccc(NC(=O)c4occc4C)c3)c2s1 [Example 82, Methyl [(3-{[(7-{3-[(3-methyl-2-furoyl)amino]phenoxy}thieno[3,2-b]pyridin-2-yl)carbonyl]amino}propyl)amino]acetate]
4 | – | – | COC(=O)[C@@H]1C[C@@H](O)CN1CCCNC(=O)c1cc2nccc(Oc3ccc(NC(=O)Nc4cc(C)ccc4F)cc3)c2s1 (relative stereo) [Example 17, methyl rel-(2R,4S)-1-{3-[({7-[4-({[(2-fluoro-5-methylphenyl)amino]carbonyl}amino)phenoxy]thieno[3,2-b]pyridin-2-yl}carbonyl)amino]propyl}-4-hydroxypyrrolidine-2-carboxylate]
14 | 323 | – | Cc1ccoc1C(=O)Nc1cccc(Oc2ccnc3cc(C(=O)NCCc4nn[nH]n4)sc23)c1 [Example 78, 7-{3-[(3-methyl-2-furoyl)amino]phenoxy}-N-[2-(2H-tetrazol-5-yl)ethyl]thieno[3,2-b]pyridine-2-carboxamide]
21 | – | 35 | COC(=O)c1cc2nccc(Oc3cccc(NC(=O)Nc4cc(C)ccc4F)c3)c2s1 [Compound F3, Methyl 7-[3-({[(2-fluoro-5-methylphenyl)amino]carbonyl}amino)phenoxy]thieno[3,2-b]pyridine-2-carboxylate]
2 | – | – | Cc1ccc(F)c(NC(=O)Nc2ccc(Oc3ccnc4cc(C(=O)N=S(C)(C)=O)sc34)cc2)c1 [Example 61, N-[dimethyl(oxido)-lambda˜4˜-sulfanylidene]-7-[4-({[(2-fluoro-5-methylphenyl)amino]carbonyl}amino)phenoxy]thieno[3,2-b]pyridine-2-carboxamide]
7 | – | 10 | Cc1ccc(F)c(NC(=O)Nc2ccc(Oc3ccnc4cc(C(=O)NCCCN)sc34)cc2F)c1 [Example 45, N-(3-aminopropyl)-7-[3-fluoro-4-({[(2-fluoro-5-methylphenyl)amino]carbonyl}amino)phenoxy]thieno[3,2-b]pyridine-2-carboxamide]
12 | – | – | Cc1ccc(F)c(NC(=O)Nc2ccc(Oc3ccnc4cc(C(=O)NCCCO)sc34)cc2F)c1 [Example 53, 7-[3-fluoro-4-({[(2-fluoro-5-methylphenyl)amino]carbonyl}amino)phenoxy]-N-(3-hydroxypropyl)thieno[3,2-b]pyridine-2-carboxamide]
17 | 392 | – | Cc1ccoc1C(=O)Nc1cccc(Oc2ccnc3cc(C(=O)NCCO)sc23)c1 [Example 77, N-(2-hydroxyethyl)-7-{3-[(3-methyl-2-furoyl)amino]phenoxy}thieno[3,2-b]pyridine-2-carboxamide]
10 | – | – | Cc1ccc(F)c(NC(=O)Nc2ccc(Oc3ccnc4cc(C(=O)NCCC(=O)O)sc34)cc2F)c1 [Compound F7, 3-[({7-[3-fluoro-4-({[(2-fluoro-5-methylphenyl)amino]carbonyl}amino)phenoxy]thieno[3,2-b]pyridin-2-yl}carbonyl)amino]propanoic acid]
11 | – | 16 | Cc1ccc(F)c(NC(=O)Nc2ccc(Oc3ccnc4cc(C(=O)NCCCNC(=O)OC(C)(C)C)sc34)cc2F)c1 [Example 44, tert-butyl {3-[({7-[3-fluoro-4-({[(2-fluoro-5-methylphenyl)amino]carbonyl}amino)phenoxy]thieno[3,2-b]pyridin-2-yl}carbonyl)amino]propyl}carbamate]
11 | – | – | Cc1ccc(F)c(NC(=O)Nc2ccc(Oc3ccnc4cc(C(=O)O)sc34)cc2F)c1 [Compound F8, 7-[3-fluoro-4-({[(2-fluoro-5-methylphenyl)amino]carbonyl}amino)phenoxy]thieno[3,2-b]pyridine-2-carboxylic acid]
24 | 169 | – | COC(=O)c1cc2nccc(Oc3cccc(NC(=O)c4occc4C)c3)c2s1 [Example 71, Methyl 7-{3-[(3-methyl-2-furoyl)amino]phenoxy}thieno[3,2-b]pyridine-2-carboxylate]
34 | – | 4 | COC(=O)CC[C@H](NC(=O)c1cc2nccc(Oc3ccc(NC(=O)Nc4cc(C)ccc4F)c(F)c3)c2s1)C(=O)OC [Example 54, dimethyl (2S)-2-[({7-[3-fluoro-4-({[(2-fluoro-5-methylphenyl)amino]carbonyl}amino)phenoxy]thieno[3,2-b]pyridin-2-yl}carbonyl)amino]pentanedioate]
3 | – | – | Cc1ccc(F)c(NC(=O)Nc2ccc(Oc3ccnc4cc(C(=O)N=S(C)(C)=O)sc34)cc2F)c1 [Example 58, N-[dimethyl(oxido)-lambda˜4˜-sulfanylidene]-7-[3-fluoro-4-({[(2-fluoro-5-methylphenyl)amino]carbonyl}amino)phenoxy]thieno[3,2-b]pyridine-2-carboxamide]
11 | – | – | Cc1ccc(F)c(NC(=O)Nc2ccc(Oc3ccnc4cc(C(=O)NCCC(=O)O)sc34)cc2)c1 [Compound F6, 3-[({7-[4-({[(2-fluoro-5-methylphenyl)amino]carbonyl}amino)phenoxy]thieno[3,2-b]pyridin-2-yl}carbonyl)amino]propanoic acid]
10000 | – | 10000 | Cc1ccc(F)c(NC(=O)Nc2ccc(-c3ccnc4cc(C(=O)O)sc34)cc2)c1 [Compound F5, 7-[4-({[(2-fluoro-5-methylphenyl)amino]carbonyl}amino)phenyl]thieno[3,2-b]pyridine-2-carboxylic acid]
6 | – | 4 | COC(=O)C1CCCN1CCCNC(=O)c1cc2nccc(Oc3ccc(NC(=O)Nc4cc(C)ccc4F)c(F)c3)c2s1 (stereo not shown) [Example 42, methyl 1-{3-[({7-[3-fluoro-4-({[(2-fluoro-5-methylphenyl)amino]carbonyl}amino)phenoxy]thieno[3,2-b]pyridin-2-yl}carbonyl)amino]propyl}pyrrolidine-2-carboxylate]
10000 | – | 10000 | COC(=O)c1cc2nccc(-c3ccc(NC(=O)Nc4cc(C)ccc4F)cc3)c2s1 [Compound F4, Methyl 7-[4-({[(2-fluoro-5-methylphenyl)amino]carbonyl}amino)phenyl]thieno[3,2-b]pyridine-2-carboxylate]
9 | 191 | – | CCNC(=O)c1cc2nccc(Oc3cccc(NC(=O)c4occc4C)c3)c2s1 [Example 73, N-ethyl-7-{3-[(3-methyl-2-furoyl)amino]phenoxy}thieno[3,2-b]pyridine-2-carboxamide]

SMILES | IC50 [1] [nM] | IC50 [2] [nM] | IC50 [3] [nM]
Cc1ccc(F)c(NC(=O)Nc2ccc(Oc3ccnc4cc(C(=O)N[C@@H](CCC(=O)OC(C)(C)C)C(=O)O)sc34)cc2F)c1 [Example 48, (2S)-5-tert-butoxy-2-[({7-[3-fluoro-4-({[(2-fluoro-5-methylphenyl)amino]carbonyl}amino)phenoxy]thieno[3,2-b]pyridin-2-yl}carbonyl)amino]-5-oxopentanoic acid] | 7 | – | –

From patent publication US9340555B2, “Compounds as tyrosine kinase modulators” (Allergan, Inc., priority 2009, dated 2016)
